# In patent US20260001893A1, “SMALL MOLECULE MODULATORS OF STAT6” (Gilead Sciences, Inc., priority 2024, published 2026):
# pEC50: −log10 of the molar value.
# System: Eotaxin-3 (CCL26) release in human whole blood stimulated with IL-4
# Test: Human whole blood eotaxin-3 assay (IL-4 stimulated eotaxin-3 release)
# Format: cell-based
# Conditions: Homo sapiens, 48 h, human whole blood stimulated with recombinant human IL-4, 48 h; given for test compounds with <80% Emax; geometric mean
# Procedure: Human Whole Blood Eotaxin-3 Assay
# This was a human whole blood assay using recombinant human Interleukin 4 to stimulate the blood and measuring the ability of the test compounds to inhibit eotaxin-3 release. The biological activities of the test compounds have been tested in human whole blood stimulated with IL-4 measuring Eotaxin-3 release. The test compounds were added to 384 well clear flat-bottom plate in a 4-fold serial dilution in triplicates using a liquid handler. Human whole blood stabilized in lithium-heparin tubes was added in a volume of 65 μL per well, resulting in a final DMSO concentration of 0.5%. The plate is incubated for 2 h at 37° C. under 5% CO2/95% air. Subsequently, 5 μL of recombinant human IL-4 (R&D Systems, cat #204-ILB) was added to the wells to a final concentration of […]. The plate was incubated for 48 h at 37° C. under 5% CO2/95% air. The plate was spun down for 10 minutes at 500×g and 20 μL supernatant was harvested and transferred to a 384 well v-bottom plate using a liquid handler and stored at −20° C. until further analysis. 10 μL supernatant was used to measure the level of Eotaxin-3 (CCL26) using Human Eotaxin-3 MSD kit from Mesocsale (Cat #K251UEK-4). The assay was performed according to the manufacture instructions.
# The data from the human whole blood eotaxin-3 assay is shown below for Examples 1ab3, 1ab6, 1d23, and 1d4 (where the effect in % is plotted against the test concentration in M on a log-scale).
row,SMILES,Emax
1,"C[C@H](c1cc2c(-n3ccc(N)c(F)c3=O)ccnc2n1C)N1CC=C(c2ccc(C(=O)N(C)C)cn2)CC1 (single isomer, unassigned) [Example 1m76]",< 20%
2,"CN(C)C(=O)c1ccc(C2=CCN(Cc3cc4c(-n5ccc6c(c5=O)CCN6)ccnc4n3C)CC2)cc1F [Example 1m83, 2-fluoro-N,N-dimethyl-4-(1-((1-methyl-4-(4-oxo-1,2,3,4-tetrahydro-5H-pyrrolo[3,2-c]pyridin-5-yl)-1H-pyrrolo[2,3-b]pyridin-2-yl)methyl)-1,2,3,6-tetrahydropyridin-4-yl)benzamide]",30 to 40%

# Same assay, conditions: Homo sapiens, 48 h, human whole blood stimulated with recombinant human IL-4, 48 h; inhibition of eotaxin-3 release; given for test compounds with >80% Emax; geometric mean
row,SMILES,pEC50
1,"CN(C)C(=O)c1cc(F)c(C2=CCN(Cc3cc4c(-n5ccc6c(c5=O)CCN6)ccnc4n3C)CC2)c(F)c1 [Example 1m107, 3,5-difluoro-N,N-dimethyl-4-(1-((1-methyl-4-(4-oxo-1,2,3,4-tetrahydro-5H-pyrrolo[3,2-c]pyridin-5-yl)-1H-pyrrolo[2,3-b]pyridin-2-yl)methyl)-1,2,3,6-tetrahydropyridin-4-yl)benzamide]",7.62
2,"CNc1ccn(-c2ccnc3c2cc([C@@H](C)N2CC[C@H](c4c(C)cc(C(=O)N(C)C)cc4F)C(F)(F)C2)n3C)c(=O)c1 (single isomer, unassigned) [Example 1m144]",5.66
3,"CNc1ccn(-c2ccnc3c2cc(CN2CC[C@@H](c4ccc(C(=O)N(C)C)cc4)C[C@H]2C)n3C)c(=O)c1 (single isomer, unassigned) [Example 1d42]",6.82
4,"CNc1c(F)cn(-c2ccnc3c2cc(CN2CCC(c4c(F)cc(C(=O)N(C)C)cc4F)CC2)n3C)c(=O)c1F [Example 1m136, 4-(1-((4-(3,5-difluoro-4-(methylamino)-2-oxopyridin-1 (2H)-yl)-1-methyl-1H-pyrrolo[2,3-b]pyridin-2-yl)methyl)piperidin-4-yl)-3,5-difluoro-N,N-dimethylbenzamide]",7.32
5,"CNc1ccn(-c2ccnc3c2cc([C@H](C)N2CC=C(c4c(C)cc(C(=O)N(C)C)cc4F)CC2)n3C)c(=O)n1 [Example 1m106, (S)-3-fluoro-N,N,5-trimethyl-4-(1-(1-(1-methyl-4-(4-(methylamino)-2-oxopyrimidin-1 (2H)-yl)-1H-pyrrolo[2,3-b]pyridin-2-yl)ethyl)-1,2,3,6-tetrahydropyridin-4-yl)benzamide]",8.53
6,"[2H]C([2H])([2H])N(C(=O)c1cc(F)c(C2=CCN(Cc3cc4c(-n5ccc(NC)cc5=O)ccnc4n3C)CC2)c(F)c1)C([2H])([2H])[2H] [Example 1m98, 3,5-difluoro-N,N-bis(methyl-d3)-4-(1-((1-methyl-4-(4-(methylamino)-2-oxopyridin-1 (2H)-yl)-1H-pyrrolo[2,3-b]pyridin-2-yl)methyl)-1,2,3,6-tetrahydropyridin-4-yl)benzamide]",7.65
7,"[2H]C([2H])([2H])N(C(=O)c1cc(C)c(C2=CCN(Cc3cc4c(-n5cc(F)c(N)cc5=O)ccnc4n3C)CC2)c(F)c1)C([2H])([2H])[2H] [Example 1ad11, 4-(1-((4-(4-amino-5-fluoro-2-oxopyridin-1 (2H)-yl)-1-methyl-1H-pyrrolo[2,3-b]pyridin-2-yl)methyl)-1,2,3,6-tetrahydropyridin-4-yl)-3-fluoro-5-methyl-N,N-bis(methyl-d3)benzamide]",7.95
8,"[2H]C([2H])([2H])N(C(=O)c1cc(F)c(C2CCN(Cc3cc4c(-n5ccc6c(c5=O)CCN6)ccnc4n3C)CC2)c(F)c1)C([2H])([2H])[2H] [Example 1m117, 3,5-difluoro-N,N-bis(methyl-d3)-4-(1-((1-methyl-4-(4-oxo-1,2,3,4-tetrahydro-5H-pyrrolo[3,2-c]pyridin-5-yl)-1H-pyrrolo[2,3-b]pyridin-2-yl)methyl)piperidin-4-yl)benzamide]",7.61
9,"[2H]C([2H])([2H])N(C(=O)c1ccc(C2CCN([C@@H](C)c3cc4c(-n5ccc(NC)cc5=O)ccnc4n3C)CC2)cc1)C([2H])([2H])[2H] [Example 1m74, (S)—N,N-bis(methyl-d3)-4-(1-(1-(1-methyl-4-(4-(methylamino)-2-oxopyridin-1 (2H)-yl)-1H-pyrrolo[2,3-b]pyridin-2-yl)ethyl)piperidin-4-yl)benzamide]",7.89
10,"C[C@H](c1cc2c(-n3ccc4c(c3=O)CCN4)ccnc2n1C)N1CC=C(c2c(F)cc(C(=O)N(C)C)cc2F)CC1 [Example 1m123, (R)-3,5-difluoro-N,N-dimethyl-4-(1-(1-(1-methyl-4-(4-oxo-1,2,3,4-tetrahydro-5H-pyrrolo[3,2-c]pyridin-5-yl)-1H-pyrrolo[2,3-b]pyridin-2-yl)ethyl)-1,2,3,6-tetrahydropyridin-4-yl)benzamide]",6.68
11,"CNc1ccn(-c2ccnc3c2cc([C@H](C)N2CC=C(c4c(C)cc(C(=O)N(C)C)cc4F)CC2)n3C)c(=O)c1 [Example 1af82, (S)-3-fluoro-N,N,5-trimethyl-4-(1-(1-(1-methyl-4-(4-(methylamino)-2-oxopyridin-1 (2H)-yl)-1H-pyrrolo[2,3-b]pyridin-2-yl)ethyl)-1,2,3,6-tetrahydropyridin-4-yl)benzamide]",8.58
12,"[2H]C([2H])([2H])N(C(=O)c1cc(F)c(C2=CCN(Cc3cc4c(-n5ccc6c(c5=O)CCN6)ccnc4n3C)CC2)c(F)c1)C([2H])([2H])[2H] [Example 1m115, 3,5-difluoro-N,N-bis(methyl-d3)-4-(1-((1-methyl-4-(4-oxo-1,2,3,4-tetrahydro-5H-pyrrolo[3,2-c]pyridin-5-yl)-1H-pyrrolo[2,3-b]pyridin-2-yl)methyl)-1,2,3,6-tetrahydropyridin-4-yl)benzamide]",7.69
13,"[2H]C([2H])([2H])N(C(=O)c1cc(C)c(C2=CCN(Cc3cc4c(-n5ccc(N)cc5=O)ccnc4n3C)CC2)c(F)c1)C([2H])([2H])[2H] [Example 1ad5, 4-[1-[[4-(4-Amino-2-oxo-1-pyridyl)-1-methyl-pyrrolo[2,3-b]pyridin-2-yl]methyl]-3,6-dihydro-2H-pyridin-4-yl]-3-fluoro-5-methyl-N,N-bis(trideuteriomethyl)-benzamide]",8.28
14,"[2H]C([2H])([2H])N(C(=O)c1cc(C)c(C2=CCN(Cc3cc4c(-n5ccc(NC)cc5=O)ccnc4n3C)CC2)c(F)c1)C([2H])([2H])[2H] [Example 1ad8, 3-Fluoro-5-methyl-N,N-bis(methyl-d3)-4-(1-((1-methyl-4-(4-(methylamino)-2-oxopyridin-1 (2H)-yl)-1H-pyrrolo[2,3-b]pyridin-2-yl)methyl)-1,2,3,6-tetrahydropyridin-4-yl)benzamide]",8.05
15,"Cc1cc(C(=O)N(C)C)cc(F)c1C1CCN(Cc2cc3c(-n4ccc5c(c4=O)CCN5)ccnc3n2C)CC1 [Example 1m103, 3-fluoro-N,N,5-trimethyl-4-(1-((1-methyl-4-(4-oxo-1,2,3,4-tetrahydro-5H-pyrrolo[3,2-c]pyridin-5-yl)-1H-pyrrolo[2,3-b]pyridin-2-yl)methyl)piperidin-4-yl)benzamide]",7.57
16,"CN(C)C(=O)c1ccc(C2=CCN(Cc3cc4c(-n5ccc6c(c5=O)CCN6)ccnc4n3C)CC2)c(C2CC2)c1 [Example 1m113, cyclopropyl-N-dimethyl-4-(1-((1-methyl-4-(4-oxo-1,2,3,4-tetrahydro-5H-pyrrolo[3,2-c]pyridin-5-yl)-1H-pyrrolo[2,3-b]pyridin-2-yl)methyl)-1,2,3,6-tetrahydropyridin-4-yl)benzamide]",7.52
